Source: US9487489B2, “Halogen-substituted pyrazole derivatives as pest-control agents” (BAYER CROPSCIENCE AKTIENGESELLSCHAFT, priority 2013, dated 2016)

Legend:
[1] = system: engorged adult female cattle ticks (Boophilus microplus); experiment: Boophilus microplus injection test (BOOPMI Inj); assay type: in vivo; conditions: application rate 20 μg/animal; injection into abdomen; assessed after 7 days
Outline: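 Efficacy is read at 7 days as fertile egg laying (100% = no fertile eggs laid; 0% = all eggs fertile), with eggs of unclear fertility stored until larvae hatch at about 42 days. Five engorged adult females per dose each receive an abdominal injection of 1 μl compound dissolved in DMSO.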

[2] = system: Tick nymphs (Amblyomma hebraeum); experiment: Amblyomma hebraeum test (AMBYHE), tick nymphs immersed; assay type: in vivo; conditions: application rate 100 ppm; immersed one minute; after 42 days
Method: A. Amblyomma hebaraeum Test (AMBYHE)
Solvent: dimethyl sulphoxide
To produce a suitable preparation of active compound, 10 mg of active compound are mixed with 0.5 ml of dimethyl sulfoxide, and the concentrate is diluted with water to the desired concentration.
Tick nymphs (Amblyomma hebraeum) are placed into perforated plastic beakers and immersed in the desired concentration for one minute. The ticks are transferred on filter paper into a Petri dish and stored in a climate-controlled cabinet.
After 42 days, the kill in % is determined. 100% means that all of the ticks have been killed; 0% means that none of the ticks have been killed.

[3] = system: greenhouse red spider mite (Tetranychus urticae); experiment: Tetranychus urticae spray test, OP-resistant (TETRUR); assay type: in vivo; conditions: application rate 100 g/ha; bean leaf discs; after 6 days
Outline: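 Percent kill, scored 6 days post-spray (0% = none dead, 100% = all dead), on Phaseolus vulgaris leaf discs infested with every life stage of the OP-resistant spider mite. Compound dissolved in acetone plus DMF, diluted to test concentration with emulsifier-containing water (1000 ppm).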

[4] = logP determination by HPLC on a reversed-phase column (C18), EEC Directive 79/831 Annex V.A8; assay type: physicochemical; conditions: HPLC on reversed-phase column (C18), acetonitrile/water with formic acid, EEC Directive 79/831 Annex V.A8
Outline: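 Per EEC 79/831 Annex V.A8, values derive from HPLC retention at 2.0 ml/min and 55° C on a 50*4.6 C18 column. The 10→95% acetonitrile gradient (0.1%/0.09% formic acid) lasted 4.25 min plus a 1.25 min hold; mass detection was by MSD.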

[5] = system: green peach aphid (Myzus persicae); experiment: Myzus persicae spray test (MYZUPE); assay type: in vivo; conditions: application rate 100 g/ha; Chinese cabbage leaf discs; after 6 days
Outline: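 Chinese cabbage leaf discs infested with all aphid stages sprayed with compound in acetone/DMF with alkylaryl polyglycol ether emulsifier in water. Efficacy (% aphids killed; 100% all dead, 0% none) scored after 6 days.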

[6] = system: larvae of the mustard beetle (Phaedon cochleariae); experiment: Phaedon cochleariae spray test (PHAECO); assay type: in vivo; conditions: application rate 100 g/ha; Chinese cabbage leaf discs; after 7 days
Outline: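 Kill of mustard beetle larvae is read as % mortality 7 days after spraying. Spray liquid: active compound in acetone plus dimethylformamide, brought up with water holding 1000 ppm alkylaryl polyglycol ether emulsifier and diluted further in emulsifier-water.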

[7] = system: adult houseflies (Musca domestica); experiment: Musca domestica test (MUSCDO); assay type: in vivo; conditions: application rate 100 ppm; after 2 days
Outline: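 Groups of 10 adult Musca domestica exposed to a sugar-soaked sponge treated with the water-diluted DMSO preparation of compound at the chosen concentration. Percent kill read at day 2, where 0% means no flies killed and 100% all killed.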

[8] = system: cattle ticks (Boophilus microplus) Parkhurst strain, SP-resistant; experiment: Boophilus microplus dip test (BOOPMI Dip); assay type: in vivo; conditions: application rate 100 ppm, assessed after 7 days
Outline: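 Adult engorged female SP-resistant Parkhurst ticks (8–10) were fully immersed in compound diluted in water from a DMSO solution, then kept in a climate-controlled room. After 7 days, fertile egg-laying was scored, with larval hatching checked at about 42 days; 100% efficacy means no fertile eggs.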

[9] = system: L1 larvae of the Australian sheep blowfly (Lucilia cuprina); experiment: Lucilia cuprina test (LUCICU); assay type: in vivo; conditions: application rate 100 ppm; after 2 days
Outline: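 Percent mortality read at 2 days; 100% = all larvae killed, 0% = none. Test compound, predissolved in DMSO and water-diluted to the wanted level, was mixed into minced horsemeat holding roughly 20 first-instar larvae.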

Row | Structure (SMILES) | efficacy (laying of fertile eggs) [1] | efficacy (kill in %) [2] | efficacy in % [3] | logP [4] | efficacy in % [5] | efficacy in % [6] | efficacy (kill in %) [7] | efficacy (laying of fertile eggs) [8] | efficacy (kill in %) [9]
1 | Cn1nc(C(F)(F)C(F)(F)F)c(C(F)(F)F)c1-n1cc(-c2ccc(Br)c(C(=O)NC3(C#N)CC3)c2)cn1 [Ic-34] | 100% | 100% | 100% | 3.74 | 90% | 100% | 100% | 100% | 100%
2 | Cn1nc(C(F)(F)C(F)(F)F)c(C(F)(F)F)c1-n1cc(-c2ccc(F)c(C(=O)NC3(C#N)CC3)c2)cn1 [Ic-36] | 100% | 100% | 100% | 3.69 | 90% | 100% | 100% | 100% | 100%
